# Test results reported in patent US6518278B1, “Carcinostatic substance for compatible administration, process of administrating same and process of rapidly inspecting same” (Debio Pharm S.A., priority 1994, dated 2003).
# “Also recorded” adds a separate entry of the source.
# Tested on: human leutecyte strain cell (RPMI-8402)
# Assay: Extinction effect of compatible administration of l-OHP and a compatible agent on tumor cells (compatible efficiency OE)
# Format: cell-based
# Settings: for Compatible Effects of l-OHP and Compatible Agent, Simultaneous Administration: both added day 1
# Description: In the evaluation of the extinction effect of the tumor cells of the respective combinations, a pure extinction effect produced by the compatible administration of the compatible agent and the l-OHP is calculated by subtracting an extinction effect of a control (no carcinostatic substance is employed).
# The compatibly administration effect is calculated by employing an Equation (1) described later. When the value (%) calculated by this Equation is between 85 and 115%, the compatible administration effect is evaluated to be an additive effect. When the value is below 85%, it is evaluated to be below the additive effect. When the value is over 115%, it is evaluated to be a synergistic effect, ±15% is a reliability limit or a measurement error.
# A target tumor cell was a human leutecyte strain cell (RPMI-8402 of Gibuko K.K.). To these cells was added blood serum of a cow embryo (15%, Gibuko K.K.) to prepare a cell floating liquid of which the number of the cells was 10^6/ml in a cultivation bottle (tradename; Sumiron of Sumitomo Bakelite o., Ltd.) having a volume of 6 ml. A plenty of the cultivation bottles having the cell floating liquid therein were prepared, and the following experiments were conducted while selecting one kind of a compatible agent among cisplatin, 5-FU, irinotecane, adriamycin, etoposide, mitomycin, mitoxantrone, bleomycin, vincristin and vindecin. The time schedules of the controls (no addition of medicines, addition of only the l-OHP and addition of only a compatible agent, and specified in the below items (1) to (4)) and of the compatible administration of the compatible agent and the l-OHP are shown in FIG. 10.
# (1) No medicine was added (control).
# (2) Only the l-OHP was added at a second day.
# (3) A large amount of compatible agents were added at a first day ([…] of the cisplatin, 10 μg/ml of the 5-FU, 0.05 μg/ml of the adriamycin and 1 μg/ml of the etoposide, and for the comparison purpose, 0.05 μg/ml of the vincristin and 0.06 μg/ml of the vindecin). The adding amount of the irinotecano was fixed to 10 μg/ml, and the addition amount of the l-OHP was 5 μg/ml.
# (4) A small amount of compatible agents were added at a first day (0.5 μg/ml of the cisplatin, 5 μg/ml of the 5-FU, 0.01 μg/ml of the adriamycin and 0.5 μg/ml of the etoposide, and for the comparison purpose, 0.01 μg/ml of the vincristin and 0.01 μg/ml of the vindecin). The adding amount of the irinotecane was fixed to 10 μg/ml, and the addition amount of the l-OHP was 1 μg/ml.
# (5) The l-OHP and a large amount (the same as that of the above item (3) and so forth in the following items) of the compatible agents were simultaneously added at a first day.
# (6) The l-OHP and a small amount (the same as that of the above item (4) and so forth in the following items) of the compatible agents were simultaneously added at a first day.
# (7) The l-OHP was added at a first day and a large amount of the compatible agents were added at a second day.
# (8) The l-OHP was added at a first day and a small amount of the compatible agents were added at a second day.
# (9) The l-OHP was added at a first day and a large amount of the compatible agents were added at a third day.
# (10) The l-OHP was added at a first day and a small amount of the compatible agents were added at a third day.
# (11) The l-OHP was added at a first day and a large amount of the compatible agents were added at a fourth day.
# (12) The l-OHP was added at a first day and a small amount of the compatible agents were added at a fourth day.
# (13) A large amount of the compatible agents were added at a first day and the l-OHP was added at a second day.
# (14) A small amount of the compatible agents were added at a first day and the l-OHP was added at a second day.
# (15) A large amount of the compatible agents were added at a first day and the l-OHP was added at a third day.
# (16) A small amount of the compatible agents were added at a first day and the l-OHP was added at a third day.
# [1] = larger dosage of compatible agent (μg/ml: cisplatin 1, 5-FU 10, irinotecane 10, adriamycin 0.05, vincristin 0.05, vindecin 0.05, etoposide 1, bleomycin 10, mitoxantrone 0.1, mitomycine 1), l-OHP 1 μg/ml (5 μg/ml with irinotecane) added day 1
# [2] = larger dosage of compatible agent (μg/ml: cisplatin 1, 5-FU 10, irinotecane 10, adriamycin 0.05, vincristin 0.05, vindecin 0.05, etoposide 1, bleomycin 10, mitoxantrone 0.1, mitomycine 1), l-OHP 1 μg/ml (5 μg/ml with irinotecane)
# [3] = larger dosage of compatible agent added day 1 (μg/ml: cisplatin 1, 5-FU 10, irinotecane 10, adriamycin 0.05, vincristin 0.05, vindecin 0.05, etoposide 1, bleomycin 10, mitoxantrone 0.1, mitomycine 1), l-OHP 1 μg/ml (5 μg/ml with irinotecane)
# [4] = smaller dosage of compatible agent (μg/ml: cisplatin 0.5, 5-FU 5, irinotecane 10, adriamycin 0.01, vincristin 0.01, vindecin 0.01, etoposide 0.5, bleomycin 1, mitoxantrone 0.05, mitomycine 0.5), l-OHP 1 μg/ml added day 1
# [5] = smaller dosage of compatible agent (μg/ml: cisplatin 0.5, 5-FU 5, irinotecane 10, adriamycin 0.01, vincristin 0.01, vindecin 0.01, etoposide 0.5, bleomycin 1, mitoxantrone 0.05, mitomycine 0.5), l-OHP 1 μg/ml
# [6] = smaller dosage of compatible agent added day 1 (μg/ml: cisplatin 0.5, 5-FU 5, irinotecane 10, adriamycin 0.01, vincristin 0.01, vindecin 0.01, etoposide 0.5, bleomycin 1, mitoxantrone 0.05, mitomycine 0.5), l-OHP 1 μg/ml
Structure (SMILES),"compatible administration effect with l-OHP, summary in words","Compatible Effects of l-OHP and Compatible Agent, Time Lag Administration, Addition Administration of Compatible Agent day 2 [1]","Compatible Effects of l-OHP and Compatible Agent, Time Lag Administration, Addition Administration of Compatible Agent day 3 [1]","Compatible Effects of l-OHP and Compatible Agent, Time Lag Administration, Addition Administration of Compatible Agent day 4 [1]","Compatible Effects of l-OHP and Compatible Agent, Simultaneous Administration [2]","Compatible Effects of l-OHP and Compatible Agent, Time Lag Administration, Addition Administration of l-OHP day 2 [3]","Compatible Effects of l-OHP and Compatible Agent, Time Lag Administration, Addition Administration of l-OHP day 3 [3]","Compatible Effects of l-OHP and Compatible Agent, Time Lag Administration, Addition Administration of l-OHP day 4 [3]","Compatible Effects of l-OHP and Compatible Agent, Time Lag Administration, Addition Administration of Compatible Agent day 2 [4]","Compatible Effects of l-OHP and Compatible Agent, Time Lag Administration, Addition Administration of Compatible Agent day 3 [4]","Compatible Effects of l-OHP and Compatible Agent, Time Lag Administration, Addition Administration of Compatible Agent day 4 [4]","Compatible Effects of l-OHP and Compatible Agent, Simultaneous Administration [5]","Compatible Effects of l-OHP and Compatible Agent, Time Lag Administration, Addition Administration of l-OHP day 2 [6]","Compatible Effects of l-OHP and Compatible Agent, Time Lag Administration, Addition Administration of l-OHP day 3 [6]","Compatible Effects of l-OHP and Compatible Agent, Time Lag Administration, Addition Administration of l-OHP day 4 [6]"
COc1cccc2c1C(=O)c1c(O)c3c(c(O)c1C2=O)C[C@@](O)(C(=O)CO)C[C@@H]3O[C@H]1C[C@H](N)[C@H](O)[C@H](C)O1 [adriamycin],the additive effect or the synergistic effect regardless of the administration method and the dosage in almost all the cases; also recorded: synergistic effects can be obtained in almost all the combinations when the l-OHP is added later,Δ (Δ: Below Additive Effect),◯ (◯: Additive Effect),◯ (◯: Additive Effect),◯ (◯: Additive Effect),◯ (◯: Additive Effect),• (•: Synergistic Effect),• (•: Synergistic Effect),Δ (Δ: Below Additive Effect),• (•: Synergistic Effect),◯ (◯: Additive Effect),◯ (◯: Additive Effect),• (•: Synergistic Effect),◯ (◯: Additive Effect),• (•: Synergistic Effect)
COc1cc([C@@H]2c3cc4c(cc3[C@@H](O[C@@H]3O[C@@H]5CO[C@@H](C)O[C@H]5[C@H](O)[C@H]3O)[C@H]3COC(=O)[C@H]23)OCO4)cc(OC)c1O [etoposide],the additive effect or the synergistic effect regardless of the administration method and the dosage in almost all the cases; also recorded: synergistic effects can be obtained in almost all the combinations when the l-OHP is added later,◯ (◯: Additive Effect),◯ (◯: Additive Effect),Δ (Δ: Below Additive Effect),◯ (◯: Additive Effect),• (•: Synergistic Effect),• (•: Synergistic Effect),• (•: Synergistic Effect),◯ (◯: Additive Effect),• (•: Synergistic Effect),◯ (◯: Additive Effect),◯ (◯: Additive Effect),• (•: Synergistic Effect),• (•: Synergistic Effect),• (•: Synergistic Effect)
CCc1c2c(nc3ccc(OC(=O)N4CCC(N5CCCCC5)CC4)cc13)-c1cc3c(c(=O)n1C2)COC(=O)[C@]3(O)CC [irinotecane],the additive effect or the synergistic effect regardless of the administration method and the dosage in almost all the cases; also recorded: synergistic effects can be obtained in all the combinations when the l-OHP is added later,◯ (◯: Additive Effect),◯ (◯: Additive Effect),Δ (Δ: Below Additive Effect),◯ (◯: Additive Effect),◯ (◯: Additive Effect),• (•: Synergistic Effect),• (•: Synergistic Effect),◯ (◯: Additive Effect),◯ (◯: Additive Effect),◯ (◯: Additive Effect),◯ (◯: Additive Effect),• (•: Synergistic Effect),• (•: Synergistic Effect),• (•: Synergistic Effect)
